Test results taken from US20240368139A1, “NOVEL MODULATORS OF EHMT1 AND EHMT2 AND THERAPEUTIC USE THEREOF” (Tango Therapeutics, Inc., priority 2021, published 2024).

Tests used:
H3K9me2 in HCT116 cells = assay: HCT116 H3K9me2 in-cell western assay; type: cell-based; conditions: Homo sapiens, HCT-116, 72 h, HCT116 cells, 72 hours incubation; read-out: H3K9me2 ICW IC50
Procedure, shortened: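 HCT116 cells (2,000/well) were treated for 72 h at 37° C, 5% CO2, with ten two-fold dilutions from 10 μM in duplicate. After PFA fixation, cells were stained overnight at 4° C with anti-H3K9me2, then with an 800 CW secondary plus DRAQ5.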

hERG potassium channels = hERG potassium channels (Homo sapiens, UniProt Q12809); assay: In vitro hERG assay (SyncroPatch whole-cell recording); conditions: hERG IC50, SyncroPatch, room temperature
hERG potassium channels, sequence (Q12809 whole entry): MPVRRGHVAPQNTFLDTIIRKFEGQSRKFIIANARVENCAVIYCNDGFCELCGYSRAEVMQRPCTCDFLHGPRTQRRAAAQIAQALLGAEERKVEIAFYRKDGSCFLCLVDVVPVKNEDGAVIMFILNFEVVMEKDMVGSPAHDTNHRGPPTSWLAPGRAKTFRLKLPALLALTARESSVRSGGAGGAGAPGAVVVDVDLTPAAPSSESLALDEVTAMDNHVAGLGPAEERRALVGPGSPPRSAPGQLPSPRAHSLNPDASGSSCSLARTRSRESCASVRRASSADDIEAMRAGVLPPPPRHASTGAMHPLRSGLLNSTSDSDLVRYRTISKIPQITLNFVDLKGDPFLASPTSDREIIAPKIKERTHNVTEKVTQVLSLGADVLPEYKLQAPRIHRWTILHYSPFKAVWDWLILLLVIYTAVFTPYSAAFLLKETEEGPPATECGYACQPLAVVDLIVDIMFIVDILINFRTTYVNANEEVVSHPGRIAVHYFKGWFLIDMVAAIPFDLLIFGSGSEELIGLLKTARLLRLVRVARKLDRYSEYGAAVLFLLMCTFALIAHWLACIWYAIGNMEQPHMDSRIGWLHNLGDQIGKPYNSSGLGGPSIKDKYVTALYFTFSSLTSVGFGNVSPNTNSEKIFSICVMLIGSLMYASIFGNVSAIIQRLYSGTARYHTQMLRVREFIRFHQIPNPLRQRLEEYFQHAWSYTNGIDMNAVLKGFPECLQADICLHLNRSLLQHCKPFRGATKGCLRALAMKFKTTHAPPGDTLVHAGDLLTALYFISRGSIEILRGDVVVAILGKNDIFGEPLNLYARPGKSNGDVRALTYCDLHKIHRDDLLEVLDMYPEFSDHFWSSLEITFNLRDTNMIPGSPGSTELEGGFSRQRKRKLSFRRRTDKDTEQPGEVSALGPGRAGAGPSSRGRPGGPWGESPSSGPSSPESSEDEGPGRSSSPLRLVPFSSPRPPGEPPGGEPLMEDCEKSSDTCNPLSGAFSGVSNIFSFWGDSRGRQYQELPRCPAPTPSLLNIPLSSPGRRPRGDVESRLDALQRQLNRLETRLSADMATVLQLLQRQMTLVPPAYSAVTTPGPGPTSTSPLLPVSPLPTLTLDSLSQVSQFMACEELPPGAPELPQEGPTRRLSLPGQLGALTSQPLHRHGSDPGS

human EHMT1 982-1266 = target: T1, human EHMT1 982-1266 (Homo sapiens, UniProt Q9H9B1); assay: EHMT1 enzyme assay on histone peptide substrate (3H-SAM SPA); conditions: EHMT1 IC50, recombinant human EHMT1 982-1266, histone peptide substrate
T1 sequence (Q9H9B1 982-1266): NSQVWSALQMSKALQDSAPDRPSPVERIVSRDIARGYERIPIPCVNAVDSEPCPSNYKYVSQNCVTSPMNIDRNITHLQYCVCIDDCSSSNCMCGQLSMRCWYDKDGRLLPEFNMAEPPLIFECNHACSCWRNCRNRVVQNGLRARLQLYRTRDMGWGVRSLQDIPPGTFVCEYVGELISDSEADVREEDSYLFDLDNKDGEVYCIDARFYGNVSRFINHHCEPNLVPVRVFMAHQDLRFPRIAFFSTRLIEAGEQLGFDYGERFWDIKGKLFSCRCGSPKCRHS

human EHMT2 913-1193 = target: T2, human EHMT2 913-1193 (Homo sapiens, UniProt Q96KQ7); assay: EHMT2 enzyme assay on histone peptide substrate (3H-SAM SPA); conditions: EHMT2 IC50, recombinant human EHMT2 913-1193, histone peptide substrate
T2 sequence (Q96KQ7 913-1193): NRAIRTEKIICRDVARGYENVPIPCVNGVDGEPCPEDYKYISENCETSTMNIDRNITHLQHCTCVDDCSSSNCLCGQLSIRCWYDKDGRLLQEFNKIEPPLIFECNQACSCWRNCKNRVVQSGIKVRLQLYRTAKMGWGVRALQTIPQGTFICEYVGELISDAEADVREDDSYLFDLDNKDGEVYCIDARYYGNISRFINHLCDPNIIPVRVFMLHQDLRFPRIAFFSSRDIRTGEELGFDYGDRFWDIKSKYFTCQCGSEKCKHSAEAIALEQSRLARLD

| Structure (SMILES) | IC50 (H3K9me2 in HCT116 cells) [nM] | IC50 (hERG potassium channels) [nM] | IC50 (human EHMT1 982-1266) [nM] | IC50 (human EHMT2 913-1193) [nM] |
| --- | --- | --- | --- | --- |
| CNc1ccnc(Nc2cc3c(c(C4=CCN(C)CCC4)c2)OCO3)n1 [Compound 335] | 100 to 500 | 5000 to 10000 | 100 to 500 | 100 to 500 |
| CNc1ccnc(Nc2cc3c(c(C4=CCNCCC4)c2)OCO3)n1 [Compound 336] | < 100 | 5000 to 10000 | < 100 | < 100 |
| CNc1cc(C)nc(Nc2cc3c(c(C4CCCNCC4)c2)OCCC3)n1 (stereo not shown) [Compound 341] | 100 to 500 | > 10000 | < 100 | 100 to 500 |
| CNc1cc(C)nc(Nc2cc3c(c(C4CCCNCC4)c2)OCCO3)n1 (stereo not shown) [Compound 348] | 100 to 500 | > 10000 | 100 to 500 | 100 to 500 |
